Assay results published in PMC8625559 (Pharmaceutics, 2021).

Tests used:
[1] = parameters: method as in PMID 25957747; settings: aqueous solution, untreated Skin-PAMPA plates; cited from earlier work
[2] = Skin-PAMPA membrane integrity study with piroxicam as model permeant; type: in vitro ADME; settings: piroxicam from aqueous solution; membranes pre-treated 7 h with each of 13 solvents
Experimental: Possible disruption by solvents of the integrity of the biomimetic artificial membrane was investigated. Wells were filled with each solvent and incubated over a longer (minimum 7 h) incubation time than the duration of the tests with the model solutions. The solvents were aspirated from the wells, and the residue from the surface of the membrane was removed gently with cotton paper. A standard skin permeability assay was then performed using piroxicam as the model permeant, for which precise previous data are available. The logPm values were compared with the reference value from untreated plates.

[3] = parameters: method as in L'Oréal Laboratories; settings: AH/A−; ref L'Oréal Laboratories; cited from earlier work
[4] = Stability in buffer solutions (LC/MS-MS method validation); type: physicochemical; settings: spiked at 426 and 21.5 ng/mL
Experimental: The specificity of the analytical method was controlled with blank (NaCl, 9 g/L) solution (Merck, Darmstadt Germany). The limit of quantitation (LoQ) was 2.43 ng/mL. Linearity was determined between the LoQ and 1000 ng/mL, with accuracy below ±15%, except at the LoQ, which was below ± 20%. Accuracy and precision were determined at least at two quality control (QC) theoretical concentrations: low (around 20 ng/mL) and middle (around 300 ng/mL). All QCs remained within the acceptance criteria (accuracy < ±15%). Matrix effects and stability in buffer solutions and buffer supplemented with pig skin were evaluated at two concentrations (426 and 21.5 ng/mL) in triplicate by spiking buffer solutions containing known amounts of chemical. […] A matrix effect was observed; therefore, all calibrations for this chemical were carried out in the matrix.

[5] = logP by shake-flask method, octanol/water; type: physicochemical; settings: 25.0 °C
Experimental: Two parallel experiments were carried out. Four different phase ratios of octanol:water (1:50, 1:75, 1:100, 1:125) were applied. The equilibration time was 1 h (Lauda M2OS, shaking thermostat Königshofen, Germany), and the phases were separated by centrifugation. The concentration decrease in the sample in the aqueous phase was detected by UV spectroscopy (Jasco V-550 UV/VIS spectrophotometer, Easton, MD, USA) measuring the absorbance before and after the partition at λmax = 280 nm. The logP value was calculated from the equation:(1) logP=log[A0−A1/A1(Vaq/Voct)] where A0 and A1 represent the absorbance value at the absorption maximum of the compound in the aqueous phase before and after partition.

[6] = Penetration kinetics across pig ear skin; type: in vitro ADME
Experimental: Before use, hairs were shaved from the pig ear skin using an electric razor, and the skin thickness was adjusted between 700 and 1200 µm. This size range was achieved by cutting the dermis below hair follicle. The integrity of the skin was tested according to the Trans-Epidermal Water Loss (TEWL) method using a Delfin device.
After topical application of the test chemical (infinite dose, 1.13 mL/cm^2), the concentration of the chemical in the receptor fluid was measured by sampling 200 µL of receptor fluid and replacing it with fresh fluid on an hourly basis, up to 16 h.
The kinetic samples were directly injected into an LC/MS-MS system (Shimadzu Nexera LC system, Shimadzu, Kyoto, Japan) coupled with a mass spectrometer API 3500 (Sciex, Framingham, MA, USA). The analytical system was managed by Analyst v.1.6 software (Sciex, Framingham, MA, USA). The analytical column used was a Kinetex C18 from Phenomenex™ (Torrance, CA, USA) (50 × 2.0 mm, dp. 2.6 µm), and analysis was carried out with a gradient elution with mobile phases of 20 mM ammonium acetate (A) and acetonitrile (B). The column temperature was fixed at 50 °C, and the volume of the injection was 10 µL with a flow rate of 0.8 mL/min. The ionisation mode used was electrospray negative.
The calculation was carried out using GraphPad PrismT v.7 (GraphPad Software Inc., San Diego, CA, USA).

[7] = Skin-PAMPA permeability of PER in different solvents; type: in vitro ADME
Experimental: Skin PAMPA™ sandwiches and stirring bars (P/N: 110211) were supplied by Pion Inc™. UV plates (UV-star microplate, clear, flat bottom, half area) were from Greiner Bio-one™ (Kremsmünster, Austria). Membranes were hydrated overnight with standard hydration solution (Pion Inc™., product number 120706). […] The acceptor (lower) plate contained 180 μL Prisma buffer pH 7.4 and a magnetic stirrer in each well. The PAMPA™ sandwich was incubated at 32 °C in a Gut-Box™ (from Pion Inc™). Stirring bars were applied in every well to avoid the effect of the unstirred water layer. The acceptor solution was sampled after 7.5, 15, 30, 60, 120, 240 and 360 min incubation. After each individual incubation period, 150 µL from the acceptor compartment was transferred to UV plates. The acceptor phase was replaced with fresh buffer solution.
The flux (J) was obtained as the slope of the permeability profile and expressed in µg/cm^2 × h units. For the linear regression analysis, the linear range of incubation period from 0 to 30 min was selected and used for calculation of flux of the model compound. Permeability coefficient Pm […] was calculated from the equation:Pm= J/CD(2) where CD is the donor phase concentration.

[8] = PER in S4 Dimethylisosorbide, CD 60 mg/mL
[9] = PER in S5 Water/ethanol 80:20 (w/w), CD 8 mg/mL
[10] = PER in S6 Water/dimethylisosorbide 90:10 (w/w), CD 1 mg/mL
[11] = PER in S7 Propylene glycol, CD 350 mg/mL
[12] = PER in S8 Water:propylene glycol 80:20 (w/w), CD 51 mg/mL
[13] = PER in S10 Capric/caprylic triglycerides, CD 75 mg/mL
[14] = PER in S2 Ethanol, CD 500 mg/mL
[15] = PER in S4 Dimethylisosorbide, CD 70 mg/mL
[16] = PER in S5 Water/ethanol 80:20 (w/w), CD 10 mg/mL
[17] = PER in S7 Propylene glycol, CD 500 mg/mL
[18] = PER in S8 Water:propylene glycol 80:20 (w/w), CD 10 mg/mL
[19] = PER in S9 Water/propylenglycol/ethanol 10:30:60 (w/w/w), CD 500 mg/mL
[20] = PER in S10 Capric/caprylic triglycerides, CD 70 mg/mL
[21] = PER in S11 Octyl dodecanol, CD 1 mg/mL
[22] = PER in S12 Apricot kernel oil, CD 1 mg/mL
[23] = PER in S13 Corn oil, CD 1 mg/mL

CN1C(C(=O)Nc2ccccn2)=C(O)c2ccccc2S1(=O)=O [piroxicam]
reference logPm of piroxicam [1]: −4.98 ± 0.01
logPm of piroxicam, mean across solvent-treated membranes [2]: −4.25 ± 0.30

4-phenylethyl-resorcinol [PER]
pKa [3]: 9.77–10.77 (AH/A^−) ^2
stability in buffer solutions spiked with PER [4]: 98.3 ± 7.0%
logP [5]: 2.98 ^1
J (flux) ([6]; PER in S1 Water, CD 1 mg/mL): 25 ± 9.6 µg/cm^2 × h
Permeated Amount (16 h) ([6]; PER in S1 Water, CD 1 mg/mL): 261 ± 100 µg/cm^2
logKp ([6]; PER in S1 Water, CD 1 mg/mL): −1.71 ± 0.32
Permeated Amount (16 h) ([6]; PER in S2 Ethanol, CD […]): 98 ± 67 µg/cm^2
J (flux) [6, 8]: 0.08 ± 0.024 µg/cm^2 × h
logKp [6, 8]: −5.88 ± 0.19
J (flux) [6, 9]: 61 ± 18 µg/cm^2 × h
Permeated Amount (16 h) [6, 9]: 515 ± 203 µg/cm^2
logKp [6, 9]: −1.97 ± 0.34
J (flux) [6, 10]: 7.5 ± 3 µg/cm^2 × h
Permeated Amount (16 h) [6, 10]: 100 ± 37 µg/cm^2
logKp [6, 10]: −2.16 ± 0.26
J (flux) [6, 11]: 20 ± 17.6 µg/cm^2 × h
Permeated Amount (16 h) [6, 11]: 147 ± 120 µg/cm^2
logKp [6, 11]: −4.24 ± 0.81
J (flux) [6, 12]: 98 ± 50 µg/cm^2 × h
Permeated Amount (16 h) [6, 12]: 516 ± 109 µg/cm^2
logKp [6, 12]: −1.72 ± 0.34
Permeated Amount (16 h) ([6]; PER in S9 Water/propylenglycol/ethanol 10:30:60 (w/w/w), CD […]): 320 ± 149 µg/cm^2
J (flux) [6, 13]: 8 ± 3.5 µg/cm^2 × h
Permeated Amount (16 h) [6, 13]: 54 ± 34 µg/cm^2
logKp [6, 13]: −3.97 ± 0.29
J (flux) ([7]; PER in S1 Water, CD 1 mg/mL): 72.4 ± 7.8 µg/cm^2 × h
Lag Time ([7]; PER in S1 Water, CD 1 mg/mL): 1.4 min
Permeated Amount (6 h) ([7]; PER in S1 Water, CD 1 mg/mL): 169 ± 4 µg/cm^2
logPm ([7]; PER in S1 Water, CD 1 mg/mL): −1.12 ± 0.06
J (flux) [7, 14]: 12,033 ± 252 µg/cm^2 × h
Lag Time [7, 14]: 0.0 min
Permeated Amount (6 h) [7, 14]: 13,575 ± 1710 µg/cm^2
logPm [7, 14]: −1.62 ± 0.01
J (flux) ([7]; PER in S3 Glycerol, CD 5 mg/mL): 137 ± 22 µg/cm^2 × h
Lag Time ([7]; PER in S3 Glycerol, CD 5 mg/mL): 5.5 min
Permeated Amount (6 h) ([7]; PER in S3 Glycerol, CD 5 mg/mL): 869 ± 112 µg/cm^2
logPm ([7]; PER in S3 Glycerol, CD 5 mg/mL): −1.57 ± 0.07
J (flux) [7, 15]: 209 ± 53 µg/cm^2 × h
Lag Time [7, 15]: 3.6 min
Permeated Amount (6 h) [7, 15]: 1342 ± 298 µg/cm^2
logPm [7, 15]: −2.54 ± 0.13
J (flux) [7, 16]: 589 ± 25 µg/cm^2 × h
Lag Time [7, 16]: 0.9 min
Permeated Amount (6 h) [7, 16]: 1662 ± 169 µg/cm^2
logPm [7, 16]: −1.23 ± 0.03
J (flux) [7, 10]: 76.4 ± 15.2 µg/cm^2 × h
Lag Time [7, 10]: 0.0 min
Permeated Amount (6 h) [7, 10]: 175 ± 22 µg/cm^2
logPm [7, 10]: −1.13 ± 0.07
J (flux) [7, 17]: 2118 ± 502 µg/cm^2 × h
Lag Time [7, 17]: 3.8 min
Permeated Amount (6 h) [7, 17]: 11,142 ± 729 µg/cm^2
logPm [7, 17]: −2.38 ± 0.11
J (flux) [7, 18]: 570 ± 5 µg/cm^2 × h
Lag Time [7, 18]: 1.1 min
Permeated Amount (6 h) [7, 18]: 1772 ± 98 µg/cm^2
logPm [7, 18]: −1.24 ± 0.01
J (flux) [7, 19]: 10,846 ± 326 µg/cm^2 × h
Lag Time [7, 19]: 1.4 min
Permeated Amount (6 h) [7, 19]: 14,926 ± 2431 µg/cm^2
logPm [7, 19]: −1.66 ± 0.01
J (flux) [7, 20]: 377 ± 36 µg/cm^2 × h
Lag Time [7, 20]: 3.0 min
Permeated Amount (6 h) [7, 20]: 749 ± 92 µg/cm^2
J (flux) [7, 21]: 7.18 ± 1.6 µg/cm^2 × h
Lag Time [7, 21]: 3.9 min
Permeated Amount (6 h) [7, 21]: 19 ± 0.4 µg/cm^2
J (flux) [7, 22]: 2.45 ± 0.57 µg/cm^2 × h
Lag Time [7, 22]: 3.3 min
Permeated Amount (6 h) [7, 22]: 13 ± 1.9 µg/cm^2
logPm [7, 22]: −2.63 ± 0.07
J (flux) [7, 23]: 3.26 ± 0.41 µg/cm^2 × h
Lag Time [7, 23]: 1.4 min
Permeated Amount (6 h) [7, 23]: 13 ± 1.3 µg/cm^2
logPm [7, 23]: −2.48 ± 0.06
calculated lag times ([7]; span over all 13 solvents): 0 to 6 min
